Source: patent publication US20170291882A1, “Solid Forms of Mirabegron” (Apotex Inc., priority 2014, published 2017)
≈ marks a conversion by molar mass, not a printed value. Read-outs that look alike come from different tables or passages of the source.

Legend:
[1] = Solubility testing of forms of Mirabegron (suspension stirred at room temperature, supernatant dried to constant weight); assay type: physicochemical
Procedure: Solubility testing was conducted by preparing a suspension of the subject form of Mirabegron in the indicated solvent and stirring the suspension for the indicated time period at room temperature. After this time, excess solid was removed by filtration and the volume of the supernatant was recorded. The supernatant was concentrated in vacuo and dried to constant weight to afford a solid. The solubility is shown as the weight of solid/volume of supernatant in mg/mL. The α-form and β-form of Mirabegron refer to the forms as characterized in CA 2 464 068 C.
Phosphate buffer was prepared by dissolving potassium dihydrogen phosphate (340 mg) and disodium hydrogen phosphate (353 mg) in deionized water (100 mL).

[2] = Hygroscopicity testing (desiccator with saturated ammonium sulphate solution, 25° C., 24 hours); assay type: physicochemical; conditions: 1 g, unstoppered vessel over saturated ammonium sulphate solution
Procedure: The hygroscopicity testing was conducted by placing 1 g of form APO-I Mirabegron in an unstoppered weighing vessel in a desiccator containing a saturated ammonium sulphate solution. The desiccator was placed in an oven at 25° C. for 24 hours. After this time, the percentage increase in mass was 0.89%.

[3] = cited from earlier work; for hygroscopicity (in words): as disclosed in CA 2 464 068 C

Q: For Nc1nc(CC(=O)Nc2ccc(CCNC[C@H](O)c3ccccc3)cc2)cs1 [Form APO-I, Mirabegron], which solubility at 2 h ([1]; 0.1M HCl, simulated gastric fluid, thermodynamic from solid, 2 hours) is on record?
A: 15 mg/mL (≈ 37.8 mM)

Q: And the Solubility ([1]; Distilled water, 2 hours, listed as APO-I)?
A: 0.5 mg/mL (≈ 1.26 mM)

Q: And the Solubility ([1]; Ethanol (denatured), 0.5 hours, listed as APO-I)?
A: 62.8 mg/mL (≈ 158 mM)

Q: And the Solubility ([1]; Phosphate buffer (pH 6.8), 2 hours, listed as APO-I)?
A: 6.2 mg/mL (≈ 15.6 mM)

Q: And the “percentage increase in mass” value [2]?
A: 0.89%

Q: With Nc1nc(CC(=O)Nc2ccc(CCNC[C@H](O)c3ccccc3)cc2)cs1 [Form α, (R)-2-(2-aminothiazol-4-yl)-4′-[2-[(2-hydroxy-2-phenylethyl)amino]ethyl]acetanilide] as the compound, how does the Solubility ([1]; 0.1M HCl, 2 hours) read?
A: 13.0 mg/mL (≈ 32.8 mM)

Q: What about the Solubility ([1]; Distilled water, 2 hours, listed as α) of the same compound?
A: 0.2 mg/mL (≈ 0.504 mM)

Q: What about the Solubility ([1]; Ethanol (denatured), 0.5 hours, listed as α) of the same compound?
A: 21.3 mg/mL (≈ 53.7 mM)

Q: What about the Solubility ([1]; Phosphate buffer (pH 6.8), 2 hours, listed as α) of the same compound?
A: 2.5 mg/mL (≈ 6.3 mM)

Q: And the “hygroscopicity (in words)” value ([3]; listed as α-form crystal)?
A: no hygroscopicity

Q: For Nc1nc(CC(=O)Nc2ccc(CCNC[C@H](O)c3ccccc3)cc2)cs1 [Form β, (R)-2-(2-aminothiazol-4-yl)-4′-[2-[(2-hydroxy-2-phenylethyl)amino]ethyl]acetanilide], which Solubility ([1]; Ethanol (denatured), 0.5 hours, listed as β) is on record?
A: 27.2 mg/mL (≈ 68.6 mM)

Q: And the “hygroscopicity (in words)” value ([3]; listed as β-form crystal)?
A: relatively low hygroscopicity

Q: What about the “moisture held (hygroscopic)” value ([3]; reported in CA 2 464 068 C) of the same compound?
A: up to 3%
